Measurements: publication PMC7914897, “Cytotoxic Potential of a-Azepano- and 3-Amino-3,4-SeCo-Triterpenoids” (International Journal of Molecular Sciences, 2021)
Where two headings read alike, the source gives them in different places.

Columns and labels:
SK-MEL-2 (Melanoma) = assay: NCI-60 screen (SRB, 48 h); settings: Homo sapiens
SK-OV-3 (Ovarian cancer) = assay: NCI-60 screen (SRB, 48 h); settings: Homo sapiens
Breast cancer subpanel = assay: NCI-60 screen, subpanel; settings: Homo sapiens
SW-620 (Colon cancer) = assay: NCI-60 screen (SRB, 48 h); settings: Homo sapiens, SW-620
[1] = system: NCI-H460 (NSC lung cancer); assay: NCI-60 screen (SRB, 48 h); settings: Homo sapiens, NCI-H460
LOX IMVI (Melanoma) = assay: NCI-60 screen (SRB, 48 h); type: cell-based; settings: Homo sapiens
PC-3 (Prostate cancer) = assay: NCI-60 screen (SRB, 48 h); settings: Homo sapiens
Renal Cancer subpanel = assay: NCI-60 screen, subpanel; settings: Homo sapiens
[2] = system: NCI-H226 (NSC lung cancer); assay: NCI-60 screen (SRB, 48 h); settings: Homo sapiens
BT-549 (Breast cancer) = assay: NCI-60 screen (SRB, 48 h); type: cell-based; settings: Homo sapiens
[3] = system: panel of approximately 60 cancer cell lines; assay: NCI-60 screen (SRB, 48 h), full panel
[4] = system: NCI-H322M (NSC lung cancer); assay: NCI-60 screen (SRB, 48 h); settings: Homo sapiens
RXF 393 (Renal cancer) = assay: NCI-60 screen (SRB, 48 h); settings: Homo sapiens
A498 (Renal cancer) = assay: NCI-60 screen (SRB, 48 h); settings: Homo sapiens
Ovarian Cancer subpanel = assay: NCI-60 screen, subpanel; settings: Homo sapiens
HOP-62 (NSC lung cancer) = assay: NCI-60 screen (SRB, 48 h); settings: Homo sapiens
HCC-2998 (Colon cancer) = assay: NCI-60 screen (SRB, 48 h); settings: Homo sapiens, HCC 2998
NSC lung cancer subpanel = assay: NCI-60 screen, subpanel; settings: Homo sapiens
ACHN (Renal cancer) = assay: NCI-60 screen (SRB, 48 h); settings: Homo sapiens
Melanoma subpanel = assay: NCI-60 screen, subpanel; settings: Homo sapiens
MCF7 (Breast cancer) = assay: NCI-60 screen (SRB, 48 h); settings: Homo sapiens, MCF7
UACC-62 (Melanoma) = assay: NCI-60 screen (SRB, 48 h); settings: Homo sapiens
UO-31 (Renal cancer) = assay: NCI-60 screen (SRB, 48 h); settings: Homo sapiens
M14 (Melanoma) = assay: NCI-60 screen (SRB, 48 h); settings: Homo sapiens
OVCAR-3 (Ovarian cancer) = assay: cells; settings: Homo sapiens, OVCAR-3
DU-145 (Prostate cancer) = assay: NCI-60 screen (SRB, 48 h); settings: Homo sapiens
COLO 205 (Colon cancer) = assay: NCI-60 screen (SRB, 48 h); settings: Homo sapiens

## C=C(C)[C@@H]1CC[C@]2(COS(=O)(=O)c3ccc(C)cc3)CC[C@]3(C)[C@@H](CC[C@@H]4[C@@]5(C)CCCNC(C)(C)[C@@H]5CC[C@]43C)[C@@H]12 [Compound 12]
SK-MEL-2 (Melanoma); SK-MEL-2
  GI50: 1.84 µM
SK-MEL-2 (Melanoma); SK-MEL-2, 48 h, read-out: TGI
  IC (TGI): 3.32 µM
SK-OV-3 (Ovarian cancer); SK-OV-3
  GI50: 1.87 µM
SK-OV-3 (Ovarian cancer); SK-OV-3, 48 h, read-out: TGI
  IC (TGI): 3.3 µM
SK-OV-3 (Ovarian cancer); SK-OV-3, read-out: LC50
  CC50: 5.82 µM
Breast cancer subpanel; 48 h, read-out: TGI MG_MID
  IC (TGI): 3.5 µM
Breast cancer subpanel; read-out: GI50 MG_MID
  GI50: 1.71 µM
SW-620 (Colon cancer)
  GI50: 1.83 µM
[1]
  GI50: 1.68 µM
LOX IMVI (Melanoma); 48 h, 1 dose 10 µM, read-out: Growth % of the Most Sensitive Cell Lines
  activity at 10 µM: -86.5%
LOX IMVI (Melanoma); read-out: GI50
  GI50: 1.72 µM
PC-3 (Prostate cancer); PC-3
  GI50: 1.58 µM
PC-3 (Prostate cancer); PC-3, 48 h, read-out: TGI
  IC (TGI): 3 µM
Renal Cancer subpanel; 48 h, read-out: TGI MG_MID
  IC (TGI): 3.26 µM
Renal Cancer subpanel; read-out: GI50 MG_MID
  GI50: 1.76 µM
Renal Cancer subpanel; read-out: LC50 MG_MID
  CC50: 5.87 µM
[2]; NCI-H226
  GI50: 1.81 µM
[2]; NCI-H226, 48 h, read-out: TGI
  IC (TGI): 3.63 µM
BT-549 (Breast cancer); BT-549
  GI50: 1.84 µM
BT-549 (Breast cancer); BT-549, 48 h
  IC (TGI): 3.56 µM
[3]; 1 dose 10 µM
  Positive Cytostatic Effect (cell lines with percent growth 0 to 50 / total): 11/60
  number of cancer cell lines the compound was active against: 39 cell lines
[3]; Homo sapiens, 48 h, read-out: Mean Growth, %
  activity at 10 µM: -3.21%
[3]; Homo sapiens, 48 h, read-out: Range of Growth, %
  activity at 10 µM: -94.4 to 98.7%
[3]; Homo sapiens, 48 h, read-out: TGI MG_MID60, average over all cell lines
  IC (TGI): 3.43 µM
[3]; Homo sapiens, read-out: GI50 MG_MID60
  GI50: 1.77 µM
[3]; Homo sapiens, read-out: GI50 against all human tumor cell lines
  GI50: < 3 µM
[3]; Homo sapiens, read-out: LC50 MG_MID60, average over all cell lines
  CC50: 5.84 µM
[4]
  GI50: 1.76 µM
[4]; 48 h, read-out: TGI
  IC (TGI): 3.16 µM
RXF 393 (Renal cancer); RXF 393
  GI50: 1.62 µM
RXF 393 (Renal cancer); RXF 393, 48 h, read-out: TGI
  IC (TGI): 3.13 µM
A498 (Renal cancer); A498
  GI50: 1.63 µM
A498 (Renal cancer); A498, 48 h, read-out: TGI
  IC (TGI): 3.14 µM
A498 (Renal cancer); A498, read-out: LC50
  CC50: 6.04 µM
Ovarian Cancer subpanel; 48 h, read-out: TGI MG_MID
  IC (TGI): 3.37 µM
Ovarian Cancer subpanel; read-out: GI50 MG_MID
  GI50: 1.79 µM
Ovarian Cancer subpanel; read-out: LC50 MG_MID
  CC50: 5.82 µM
HOP-62 (NSC lung cancer); HOP-62
  GI50: 1.65 µM
HOP-62 (NSC lung cancer); HOP-62, 48 h, read-out: TGI
  IC (TGI): 3.13 µM
HCC-2998 (Colon cancer)
  GI50: 1.58 µM
NSC lung cancer subpanel; 48 h, read-out: TGI MG_MID
  IC (TGI): 3.25 µM
NSC lung cancer subpanel; read-out: GI50 MG_MID
  GI50: 1.71 µM
ACHN (Renal cancer)
  GI50: 1.98 µM
ACHN (Renal cancer); 48 h, read-out: TGI
  IC (TGI): 3.45 µM
Melanoma subpanel; 48 h, read-out: TGI MG_MID
  IC (TGI): 3.42 µM
Melanoma subpanel; read-out: GI50 MG_MID
  GI50: 1.87 µM
MCF7 (Breast cancer)
  GI50: 1.45 µM
UACC-62 (Melanoma); UACC-62
  GI50: 2.05 µM
UACC-62 (Melanoma); UACC-62, 48 h, read-out: TGI
  IC (TGI): 3.64 µM
UO-31 (Renal cancer); UO-31
  GI50: 1.64 µM
UO-31 (Renal cancer); UO-31, 48 h, read-out: TGI
  IC (TGI): 3.04 µM
M14 (Melanoma); M14
  GI50: 1.83 µM
M14 (Melanoma); M14, 48 h, read-out: TGI
  IC (TGI): 3.3 µM
OVCAR-3 (Ovarian cancer)
  GI50: 1.67 µM
DU-145 (Prostate cancer); DU-145
  GI50: 1.77 µM
DU-145 (Prostate cancer); DU-145, 48 h, read-out: TGI
  IC (TGI): 3.3 µM
COLO 205 (Colon cancer); COLO 205
  GI50: 1.75 µM
COLO 205 (Colon cancer); COLO 205, 48 h, read-out: TGI
  IC (TGI): 3.24 µM
